Laboratory results reported in publication PMC12420824, “Discovery of a selective alpha-kinase 1 inhibitor for the rare genetic disease ROSAH syndrome” (Nature Communications, 2025).
Where two headings read alike, the source gives them in different places.

Columns and labels:
MEK1 = MEK1 (Homo sapiens, UniProt Q02750); experiment: HotSpot kinase assay; settings: read-out: % Enzyme Activity (relative to DMSO control), 10 uM
Description: (§1) Additionally, a 10-dose dilution series of staurosporine and other enzyme-appropriate compounds were included as positive control inhibitors.

SGK2 = SGK2 (Homo sapiens, UniProt Q9HBY8); experiment: HotSpot kinase assay; settings: read-out: % Enzyme Activity (relative to DMSO control), 10 uM
Description: as §1

DDR2 = DDR2 (Homo sapiens, UniProt Q16832); experiment: HotSpot kinase assay; settings: read-out: % Enzyme Activity (relative to DMSO control), 10 uM
Chain of DDR2 (Q16832 22-855): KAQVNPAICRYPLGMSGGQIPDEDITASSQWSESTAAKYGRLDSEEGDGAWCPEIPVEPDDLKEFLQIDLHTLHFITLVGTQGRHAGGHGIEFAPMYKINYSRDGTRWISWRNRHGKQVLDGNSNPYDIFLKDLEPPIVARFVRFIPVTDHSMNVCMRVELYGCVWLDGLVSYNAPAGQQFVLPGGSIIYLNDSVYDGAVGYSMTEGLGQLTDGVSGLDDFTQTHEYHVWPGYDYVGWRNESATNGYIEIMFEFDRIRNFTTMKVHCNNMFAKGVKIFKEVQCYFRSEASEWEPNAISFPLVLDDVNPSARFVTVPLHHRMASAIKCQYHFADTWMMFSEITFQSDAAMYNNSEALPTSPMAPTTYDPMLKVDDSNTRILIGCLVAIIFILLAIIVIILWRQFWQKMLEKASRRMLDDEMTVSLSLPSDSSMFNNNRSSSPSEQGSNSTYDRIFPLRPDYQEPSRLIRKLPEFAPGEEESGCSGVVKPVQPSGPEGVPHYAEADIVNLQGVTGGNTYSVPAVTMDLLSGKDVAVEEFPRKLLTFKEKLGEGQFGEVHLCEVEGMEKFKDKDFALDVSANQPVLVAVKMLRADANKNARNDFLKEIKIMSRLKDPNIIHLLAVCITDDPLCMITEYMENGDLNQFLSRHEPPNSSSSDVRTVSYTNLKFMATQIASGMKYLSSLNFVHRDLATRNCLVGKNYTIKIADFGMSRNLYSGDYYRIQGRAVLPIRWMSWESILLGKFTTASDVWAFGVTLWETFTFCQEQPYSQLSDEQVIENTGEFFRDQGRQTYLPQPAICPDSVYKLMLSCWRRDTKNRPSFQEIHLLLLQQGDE

TAOK1 = TAOK1 (Homo sapiens, UniProt Q7L7X3); experiment: HotSpot kinase assay; settings: read-out: % Enzyme Activity (relative to DMSO control), 10 uM
FRK/PTK5 = FRK/PTK5 (Homo sapiens, UniProt P42685); experiment: HotSpot kinase assay; settings: read-out: % Enzyme Activity (relative to DMSO control), 10 uM
Chain of FRK/PTK5 (P42685 whole entry): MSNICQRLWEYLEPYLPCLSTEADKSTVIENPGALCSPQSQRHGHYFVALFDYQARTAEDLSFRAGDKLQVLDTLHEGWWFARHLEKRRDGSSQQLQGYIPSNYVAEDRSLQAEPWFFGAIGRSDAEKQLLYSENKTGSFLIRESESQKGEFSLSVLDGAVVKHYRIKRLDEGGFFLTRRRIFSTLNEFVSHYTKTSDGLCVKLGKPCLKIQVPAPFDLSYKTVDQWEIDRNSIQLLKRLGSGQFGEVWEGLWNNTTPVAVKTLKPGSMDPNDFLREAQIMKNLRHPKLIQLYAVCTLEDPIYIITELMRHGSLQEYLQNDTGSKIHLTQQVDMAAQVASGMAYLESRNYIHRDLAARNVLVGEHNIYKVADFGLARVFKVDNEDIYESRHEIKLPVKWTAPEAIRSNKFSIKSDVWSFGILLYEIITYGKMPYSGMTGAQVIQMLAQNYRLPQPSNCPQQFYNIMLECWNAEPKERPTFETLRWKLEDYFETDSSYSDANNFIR
Description: as §1

CAMK4 = CAMK4 (Homo sapiens, UniProt Q16566); experiment: HotSpot kinase assay; settings: read-out: % Enzyme Activity (relative to DMSO control), 10 uM
Description: as §1

RAF1 = RAF1 (Homo sapiens, UniProt P04049); experiment: HotSpot kinase assay; settings: read-out: % Enzyme Activity (relative to DMSO control), 10 uM
Chain of RAF1 (P04049 whole entry): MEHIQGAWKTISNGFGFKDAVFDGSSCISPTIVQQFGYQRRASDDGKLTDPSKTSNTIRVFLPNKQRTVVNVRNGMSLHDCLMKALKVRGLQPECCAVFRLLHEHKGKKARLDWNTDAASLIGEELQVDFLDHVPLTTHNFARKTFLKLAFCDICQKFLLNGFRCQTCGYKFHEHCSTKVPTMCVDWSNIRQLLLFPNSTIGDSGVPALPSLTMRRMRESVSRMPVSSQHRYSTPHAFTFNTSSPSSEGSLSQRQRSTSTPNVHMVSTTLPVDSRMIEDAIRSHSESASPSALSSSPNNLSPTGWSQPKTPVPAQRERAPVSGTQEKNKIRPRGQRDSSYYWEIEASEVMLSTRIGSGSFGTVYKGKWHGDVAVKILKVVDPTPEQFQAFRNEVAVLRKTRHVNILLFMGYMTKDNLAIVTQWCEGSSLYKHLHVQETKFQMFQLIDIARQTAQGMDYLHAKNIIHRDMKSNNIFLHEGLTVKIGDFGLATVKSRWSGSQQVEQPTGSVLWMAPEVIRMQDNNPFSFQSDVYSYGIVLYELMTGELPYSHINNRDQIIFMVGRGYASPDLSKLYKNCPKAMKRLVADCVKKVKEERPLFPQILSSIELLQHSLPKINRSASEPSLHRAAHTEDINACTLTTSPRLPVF

TNIK = TNIK (Homo sapiens, UniProt Q9UKE5); experiment: HotSpot kinase assay; settings: read-out: % Enzyme Activity (relative to DMSO control), 10 uM
EPHA3 = EPHA3 (Homo sapiens, UniProt P29320); experiment: HotSpot kinase assay; settings: read-out: % Enzyme Activity (relative to DMSO control), 10 uM
Description: as §1

ALK3/BMPR1A = ALK3/BMPR1A (Homo sapiens, UniProt P36894); experiment: HotSpot kinase assay; settings: read-out: % Enzyme Activity (relative to DMSO control), 10 uM
Description: as §1

PKN3/PRK3 = PKN3/PRK3 (Homo sapiens, UniProt Q6P5Z2); experiment: HotSpot kinase assay; settings: read-out: % Enzyme Activity (relative to DMSO control), 10 uM
LATS2 = LATS2 (Homo sapiens, UniProt Q9NRM7); experiment: HotSpot kinase assay; settings: read-out: % Enzyme Activity (relative to DMSO control), 10 uM
Description: as §1

DMPK = DMPK (Homo sapiens, UniProt Q09013); experiment: HotSpot kinase assay; settings: read-out: % Enzyme Activity (relative to DMSO control), 10 uM
Description: as §1

FER = FER (Homo sapiens, UniProt P16591); experiment: HotSpot kinase assay; settings: read-out: % Enzyme Activity (relative to DMSO control), 10 uM
IRAK1 = IRAK1 (Homo sapiens, UniProt P51617); experiment: HotSpot kinase assay; settings: read-out: % Enzyme Activity (relative to DMSO control), 10 uM
Description: as §1

ULK3 = ULK3 (Homo sapiens, UniProt Q6PHR2); experiment: HotSpot kinase assay; settings: read-out: % Enzyme Activity (relative to DMSO control), 10 uM
MARK4 = MARK4 (Homo sapiens, UniProt Q96L34); experiment: HotSpot kinase assay; settings: read-out: % Enzyme Activity (relative to DMSO control), 10 uM
Description: as §1

AMPK(A2/B1/G1) = AMPK(A2/B1/G1) (Homo sapiens, UniProt P54646); experiment: HotSpot kinase assay; settings: read-out: % Enzyme Activity (relative to DMSO control), 10 uM
Description: as §1

SSTK/TSSK6 = SSTK/TSSK6 (Homo sapiens, UniProt Q9BXA6); experiment: HotSpot kinase assay; settings: read-out: % Enzyme Activity (relative to DMSO control), 10 uM
AMPK (A2/B1/G2) = AMPK (A2/B1/G2) (Homo sapiens, UniProt P54646); experiment: HotSpot kinase assay; settings: read-out: % Enzyme Activity (relative to DMSO control), 10 uM
Description: as §1

PAK4 = PAK4 (Homo sapiens, UniProt O96013); experiment: HotSpot kinase assay; settings: read-out: % Enzyme Activity (relative to DMSO control), 10 uM
Description: as §1

ITK = ITK (Homo sapiens, UniProt Q08881); experiment: HotSpot kinase assay; settings: read-out: % Enzyme Activity (relative to DMSO control), 10 uM
Description: as §1

BRK = BRK (Homo sapiens, UniProt Q13882); experiment: HotSpot kinase assay; settings: read-out: % Enzyme Activity (relative to DMSO control), 10 uM
Description: as §1

CAMKK2 = CAMKK2 (Homo sapiens, UniProt Q96RR4); experiment: HotSpot kinase assay; settings: read-out: % Enzyme Activity (relative to DMSO control), 10 uM
Description: as §1

TEC = TEC (Homo sapiens, UniProt P42680); experiment: HotSpot kinase assay; settings: read-out: % Enzyme Activity (relative to DMSO control), 10 uM
Chain of TEC (P42680 whole entry): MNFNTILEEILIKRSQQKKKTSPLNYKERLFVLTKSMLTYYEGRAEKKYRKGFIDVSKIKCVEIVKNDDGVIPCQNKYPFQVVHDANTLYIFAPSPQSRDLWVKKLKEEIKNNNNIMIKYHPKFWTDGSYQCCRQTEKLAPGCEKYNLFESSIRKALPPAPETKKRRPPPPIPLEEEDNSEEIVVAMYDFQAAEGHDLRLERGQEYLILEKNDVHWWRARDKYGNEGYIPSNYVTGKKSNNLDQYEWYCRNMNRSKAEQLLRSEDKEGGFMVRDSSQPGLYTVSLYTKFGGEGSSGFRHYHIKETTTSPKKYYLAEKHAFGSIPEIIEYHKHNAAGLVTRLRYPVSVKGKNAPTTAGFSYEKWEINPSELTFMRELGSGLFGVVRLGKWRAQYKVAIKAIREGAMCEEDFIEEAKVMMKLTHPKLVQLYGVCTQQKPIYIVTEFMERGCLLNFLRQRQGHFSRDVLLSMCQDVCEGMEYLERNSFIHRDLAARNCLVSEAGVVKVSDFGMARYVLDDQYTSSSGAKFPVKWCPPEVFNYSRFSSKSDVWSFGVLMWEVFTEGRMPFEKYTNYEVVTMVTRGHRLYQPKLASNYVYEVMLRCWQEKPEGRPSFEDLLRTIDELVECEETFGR
Description: as §1

KHS/MAP4K5 = KHS/MAP4K5 (Homo sapiens, UniProt Q9Y4K4); experiment: HotSpot kinase assay; settings: read-out: % Enzyme Activity (relative to DMSO control), 10 uM
STK16 = STK16 (Homo sapiens, UniProt O75716); experiment: biochemical; settings: read-out: % Enzyme Activity (relative to DMSO control), 10 uM
Chain of STK16 (O75716 whole entry): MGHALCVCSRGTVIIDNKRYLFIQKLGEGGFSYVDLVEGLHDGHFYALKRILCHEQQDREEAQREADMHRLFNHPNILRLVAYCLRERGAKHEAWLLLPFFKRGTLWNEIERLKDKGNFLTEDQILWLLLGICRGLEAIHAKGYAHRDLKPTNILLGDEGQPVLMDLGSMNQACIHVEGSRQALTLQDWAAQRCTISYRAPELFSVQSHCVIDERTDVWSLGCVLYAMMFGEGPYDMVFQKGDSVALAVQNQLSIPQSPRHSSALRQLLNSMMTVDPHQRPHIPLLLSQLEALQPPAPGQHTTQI
Description: as §1

CK1g1 = CK1g1 (Homo sapiens, UniProt Q9HCP0); experiment: HotSpot kinase assay; settings: read-out: % Enzyme Activity (relative to DMSO control), 10 uM
Description: as §1

ABL2/ARG = ABL2/ARG (Homo sapiens, UniProt P42684); experiment: HotSpot kinase assay; settings: read-out: % Enzyme Activity (relative to DMSO control), 10 uM
NEK2 = NEK2 (Homo sapiens, UniProt P51955); experiment: HotSpot kinase assay; settings: read-out: % Enzyme Activity (relative to DMSO control), 10 uM
Chain of NEK2 (P51955 whole entry): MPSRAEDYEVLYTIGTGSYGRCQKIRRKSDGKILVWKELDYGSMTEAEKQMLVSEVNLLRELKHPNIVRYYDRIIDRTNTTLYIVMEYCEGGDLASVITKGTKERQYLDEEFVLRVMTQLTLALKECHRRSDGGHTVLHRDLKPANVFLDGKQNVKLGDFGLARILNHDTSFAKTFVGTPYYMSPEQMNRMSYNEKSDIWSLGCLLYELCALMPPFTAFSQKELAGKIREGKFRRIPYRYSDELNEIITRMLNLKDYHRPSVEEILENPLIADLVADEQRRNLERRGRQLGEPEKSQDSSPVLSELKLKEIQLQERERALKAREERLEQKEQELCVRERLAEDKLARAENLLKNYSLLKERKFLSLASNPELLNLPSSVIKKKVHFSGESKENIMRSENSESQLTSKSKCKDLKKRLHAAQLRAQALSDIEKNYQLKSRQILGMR
Description: as §1

SIK1 = SIK1 (Homo sapiens, UniProt P57059); experiment: HotSpot kinase assay; settings: read-out: % Enzyme Activity (relative to DMSO control), 10 uM
NEK4 = NEK4 (Homo sapiens, UniProt P51957); experiment: HotSpot kinase assay; settings: read-out: % Enzyme Activity (relative to DMSO control), 10 uM
THP-1 macrophages = experiment: cells; settings: Homo sapiens, THP-1, 4 h
CDK4/cyclin D1 = CDK4/cyclin D1 (Homo sapiens, UniProt P11802); experiment: HotSpot kinase assay; settings: read-out: % Enzyme Activity (relative to DMSO control), 10 uM
Description: as §1

TSSK3/STK22C = TSSK3/STK22C (Homo sapiens, UniProt Q96PN8); experiment: HotSpot kinase assay; settings: read-out: % Enzyme Activity (relative to DMSO control), 10 uM
Description: as §1

CDK2/cyclin A = CDK2/cyclin A (Homo sapiens, UniProt P24941); experiment: HotSpot kinase assay; settings: read-out: % Enzyme Activity (relative to DMSO control), 10 uM
Description: as §1

STK32B/YANK2 = STK32B/YANK2 (Homo sapiens, UniProt Q9NY57); experiment: HotSpot kinase assay; settings: read-out: % Enzyme Activity (relative to DMSO control), 10 uM
Chain of STK32B/YANK2 (Q9NY57 whole entry): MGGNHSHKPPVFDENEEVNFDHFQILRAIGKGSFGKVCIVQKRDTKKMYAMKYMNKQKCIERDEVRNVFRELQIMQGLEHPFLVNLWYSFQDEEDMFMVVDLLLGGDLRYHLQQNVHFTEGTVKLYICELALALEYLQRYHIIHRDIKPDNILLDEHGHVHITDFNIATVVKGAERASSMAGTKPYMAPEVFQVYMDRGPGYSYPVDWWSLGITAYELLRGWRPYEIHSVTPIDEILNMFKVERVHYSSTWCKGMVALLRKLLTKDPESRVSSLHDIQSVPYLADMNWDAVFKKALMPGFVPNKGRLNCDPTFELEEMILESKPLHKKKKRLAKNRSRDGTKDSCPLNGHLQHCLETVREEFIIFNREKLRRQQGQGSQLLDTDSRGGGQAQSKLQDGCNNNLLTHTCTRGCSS
Description: as §1

MSK2/RPS6KA4 = MSK2/RPS6KA4 (Homo sapiens, UniProt O75676); experiment: HotSpot kinase assay; settings: read-out: % Enzyme Activity (relative to DMSO control), 10 uM
Chain of MSK2/RPS6KA4 (O75676 whole entry): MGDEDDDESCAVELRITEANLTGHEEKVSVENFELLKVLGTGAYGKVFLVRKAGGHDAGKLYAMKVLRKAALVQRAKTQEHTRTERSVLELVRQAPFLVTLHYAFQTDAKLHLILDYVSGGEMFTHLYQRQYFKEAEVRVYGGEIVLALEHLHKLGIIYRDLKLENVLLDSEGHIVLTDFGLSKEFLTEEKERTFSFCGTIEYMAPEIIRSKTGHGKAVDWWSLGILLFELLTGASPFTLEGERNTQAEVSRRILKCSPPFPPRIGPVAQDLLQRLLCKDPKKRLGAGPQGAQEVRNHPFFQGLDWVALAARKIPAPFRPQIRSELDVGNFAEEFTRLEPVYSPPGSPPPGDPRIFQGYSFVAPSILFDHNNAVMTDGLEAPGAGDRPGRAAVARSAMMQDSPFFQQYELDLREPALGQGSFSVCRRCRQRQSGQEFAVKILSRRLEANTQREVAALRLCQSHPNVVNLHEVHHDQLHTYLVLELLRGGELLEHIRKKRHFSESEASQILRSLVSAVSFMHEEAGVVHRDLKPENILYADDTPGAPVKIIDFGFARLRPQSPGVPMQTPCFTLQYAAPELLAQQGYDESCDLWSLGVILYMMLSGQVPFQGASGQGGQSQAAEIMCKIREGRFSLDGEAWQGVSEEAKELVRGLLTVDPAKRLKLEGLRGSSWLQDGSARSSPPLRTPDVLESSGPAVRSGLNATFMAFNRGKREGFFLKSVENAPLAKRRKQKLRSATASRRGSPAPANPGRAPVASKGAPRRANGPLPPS
Description: as §1

SIK2 = SIK2 (Homo sapiens, UniProt Q9H0K1); experiment: HotSpot kinase assay; settings: read-out: % Enzyme Activity (relative to DMSO control), 10 uM
Description: as §1

Chain of MEK1 (Q02750 whole entry): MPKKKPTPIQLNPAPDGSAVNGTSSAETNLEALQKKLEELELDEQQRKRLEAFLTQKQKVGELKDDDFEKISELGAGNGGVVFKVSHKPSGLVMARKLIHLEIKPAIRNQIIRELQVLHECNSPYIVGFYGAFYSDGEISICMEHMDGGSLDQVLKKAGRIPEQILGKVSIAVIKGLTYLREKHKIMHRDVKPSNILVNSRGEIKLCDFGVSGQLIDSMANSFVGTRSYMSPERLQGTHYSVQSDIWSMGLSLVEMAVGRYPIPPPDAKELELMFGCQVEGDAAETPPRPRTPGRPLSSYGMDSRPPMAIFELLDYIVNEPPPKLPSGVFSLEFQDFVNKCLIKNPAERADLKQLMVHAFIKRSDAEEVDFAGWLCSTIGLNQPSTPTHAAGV

C#C[C@@](C)(c1ccc(Cl)cc1)c1csc(NC(=O)c2c(F)cc(N3CCNCC3)cc2F)n1 (stereo in doubt) [DF-003]
remaining activity at 10 µM (MEK1): 102%
remaining activity at 10 µM (SGK2): 77.6%
remaining activity at 10 µM (DDR2): 84.6%
remaining activity at 10 µM (TAOK1): 16.8%
remaining activity at 10 µM (FRK/PTK5): 101%
remaining activity at 10 µM (CAMK4): 34.5%
remaining activity at 10 µM (RAF1): 94.2%
remaining activity at 10 µM (TNIK): 75.5%
remaining activity at 10 µM (EPHA3): 117%
remaining activity at 10 µM (ALK3/BMPR1A): 103%
remaining activity at 10 µM (PKN3/PRK3): 107%
remaining activity at 10 µM (LATS2): 45.3%
remaining activity at 10 µM (DMPK): 94.6%
remaining activity at 10 µM (FER): 113%
remaining activity at 10 µM (IRAK1): 88%
remaining activity at 10 µM (ULK3): 114%
remaining activity at 10 µM (MARK4): 110%
remaining activity at 10 µM (AMPK(A2/B1/G1)): 83.4%
remaining activity at 10 µM (SSTK/TSSK6): 98.4%
remaining activity at 10 µM (AMPK (A2/B1/G2)): 82.9%
remaining activity at 10 µM (PAK4): 102%
remaining activity at 10 µM (ITK): 71.2%
remaining activity at 10 µM (BRK): 81.2%
remaining activity at 10 µM (CAMKK2): 98.9%
remaining activity at 10 µM (TEC): 104%
remaining activity at 10 µM (KHS/MAP4K5): 77.5%
remaining activity at 10 µM (STK16): 109%
remaining activity at 10 µM (CK1g1): 95%
remaining activity at 10 µM (ABL2/ARG): 89.2%
remaining activity at 10 µM (NEK2): 68.6%
remaining activity at 10 µM (SIK1): 99.8%
remaining activity at 10 µM (NEK4): 75.9%
IC50 (THP-1 macrophages; read-out: IC50, DF-006-induced CXCL8 upregulation): 6.5 nM
IC50 (THP-1 macrophages; read-out: IC50, DF-006-induced TNF upregulation): 8 nM
remaining activity at 10 µM (CDK4/cyclin D1): 91.3%
remaining activity at 10 µM (TSSK3/STK22C): 53.7%
remaining activity at 10 µM (CDK2/cyclin A): 88.3%
remaining activity at 10 µM (STK32B/YANK2): 99.6%
remaining activity at 10 µM (MSK2/RPS6KA4): 59.7%
remaining activity at 10 µM (SIK2): 88.5%
